BigSolDB 2.1

Brc1sc(Br)c(Br)c1Br
solubility (mole fraction)
Settings | in THF | in chloroform | in ethanol | in ethyl acetate | in ethyl formate | in methanol | in n-butanol | in n-propanol | in toluene
278.05 K | 0.0405 | 0.02 | – | 0.00809 | 0.00389 | – | 0.00267 | – | 0.027
281.25 K | 0.0436 | 0.0229 | 0.00149 | 0.00924 | 0.00451 | 0.000395 | 0.00295 | 0.00219 | 0.0314
286.15 K | 0.0469 | 0.0269 | 0.00165 | 0.0109 | 0.00546 | 0.000465 | 0.00369 | 0.00256 | 0.0358
290.15 K | 0.0511 | 0.0302 | 0.0018 | 0.0124 | 0.00632 | 0.000517 | 0.00433 | 0.00287 | 0.04
293.15 K | 0.0538 | 0.0334 | 0.002 | 0.0137 | 0.00705 | 0.000567 | 0.0048 | 0.00319 | 0.044
297.15 K | 0.0572 | 0.039 | 0.00221 | 0.0154 | 0.00809 | 0.000646 | 0.0054 | 0.00364 | 0.0486
302.15 K | 0.0625 | 0.0455 | 0.00267 | 0.0183 | 0.00969 | 0.00076 | 0.00636 | 0.00433 | 0.0554
307.15 K | 0.0685 | 0.0536 | 0.0031 | 0.0216 | 0.0118 | 0.000896 | 0.0077 | 0.00514 | 0.0626
311.65 K | 0.0738 | 0.0629 | 0.00356 | 0.0249 | 0.0138 | 0.00103 | 0.00895 | 0.00584 | 0.0713
315.65 K | 0.0788 | 0.0687 | 0.00404 | 0.0279 | 0.0154 | 0.0012 | 0.0102 | 0.0067 | 0.0756
320.15 K | 0.0843 | 0.0781 | 0.00475 | 0.0326 | 0.0174 | 0.00144 | 0.0118 | 0.00812 | 0.0834
325.15 K | – | – | 0.00566 | – | – | 0.00169 | – | 0.00965 | –
